Laboratory results published in patent US6737383B1, “Herbicidal oxadiazolidines” (priority 1999, dated 2004).

Legend:
smallflower flatsedge = test: Test B flood test smallflower flatsedge; assay type: in vivo, Cyperus difformis
Method in brief: (§1)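 Read-out is a visual response score from 0 (no effect) to 10 (complete control), assigned by comparison with untreated controls. Treatment was applied at the 2-leaf stage, and plants stayed in the greenhouse for twelve to sixteen days before scoring.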

cocklebur = test: Test B pre/postemergence cocklebur; assay type: in vivo, Xanthium strumarium
Method in brief: (§2)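 Response is a visual 0-to-10 score relative to untreated plants, where 0 means no effect and 10 means complete control, taken twelve to sixteen days after application. Treatments went onto soil at planting and onto foliage of 1- to 4-leaf plants, using a surfactant-containing non-phytotoxic solvent.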

morningglory = test: Test B pre/postemergence morningglory; assay type: in vivo, Ipomoea hederacea
Method in brief: as §2

duck salad = test: Test B flood test duck salad; assay type: in vivo, Heteranthera limosa
Method in brief: as §1

purple nutsedge = test: Test B pre/postemergence purple nutsedge; assay type: in vivo, Cyperus rotundus
Method in brief: as §2

wheat = test: Test B pre/postemergence wheat; assay type: in vivo, Triticum aestivum
Method in brief: as §2

soybean = test: Test B pre/postemergence soybean; assay type: in vivo, Glycine max
Method in brief: as §2

rape = test: Test B pre/postemergence rape; assay type: in vivo, Brassica napus
Method in brief: as §2

giant foxtail = test: Test B pre/postemergence giant foxtail; assay type: in vivo, Setaria faberii
Method in brief: as §2

bedstraw = test: Test B pre/postemergence bedstraw; assay type: in vivo, Galium aparine
Method in brief: as §2

blackgrass = test: Test B pre/postemergence blackgrass; assay type: in vivo, Alopecurus myosuroides
Method in brief: as §2

surinam grass = test: Test B pre/postemergence surinam grass; assay type: in vivo, Brachiaria decumbens
Method in brief: as §2

bamyardgrass = test: Test B flood test barnyardgrass; assay type: in vivo, Echinochloa crus-galli
Method in brief: as §1

wild oat = test: Test B pre/postemergence wild oat; assay type: in vivo, Avena fatua
Method in brief: as §2

pigweed = test: Test B pre/postemergence pigweed; assay type: in vivo, Amaranthus retroflexus
Method in brief: as §2

velvetleaf = test: Test B pre/postemergence velvetleaf; assay type: in vivo, Abutilon theophrasti
Method in brief: as §2

[1] = Postemergence, Rate 62 g/ha, scale 0 to 10, 0 is no effect, 10 is complete control
[2] = Rate 125 g/ha, Postemergence section (flood test species), scale 0 to 10, 0 no effect, 10 complete control
[3] = flood test, listed under Postemergence, Rate 250 g/ha, scale 0 to 10, 0 no effect, 10 complete control
[4] = Postemergence, Rate 250 g/ha, scale 0 to 10, 0 no effect, 10 complete control
[5] = Preemergence, Rate 62 g/ha, scale 0 to 10, 0 is no effect, 10 is complete control
[6] = Preemergence, Rate 125 g/ha, scale 0 to 10 (0 no effect, 10 complete control)
[7] = Preemergence, Rate 250 g/ha, scale of 0 to 10 where 0 is no effect and 10 is complete control
[8] = Preemergence, Rate 500 g/ha, scale 0 (no effect) to 10 (complete control)
[9] = Rate 125 g/ha, Postemergence, scale 0 to 10, 0 no effect, 10 complete control
[10] = Rate 500 g/ha, Postemergence, 0 to 10 scale (0 no effect, 10 complete control)
[11] = Rate 500 g/ha, Postemergence section of Table B, 0 to 10 scale (0 no effect, 10 complete control)

CC(C)N(C(=O)n1oc(=O)n(-c2ccc(Cl)cc2C(F)(F)F)c1=O)c1ccc(F)cc1 [Compound 20]
S. Flatsedge plant response rating (smallflower flatsedge; [1]): 0
S. Flatsedge plant response rating (smallflower flatsedge; [2]): 0
S. Flatsedge plant response rating (smallflower flatsedge; [3]): 0
Cocklebur plant response rating (cocklebur; [1]): 0
Cocklebur plant response rating (cocklebur; [4]): 0
Plant response rating, Cocklebur (cocklebur; [5]): 0
Plant response rating, Cocklebur (cocklebur; [6]): 0
Plant response rating, Cocklebur (cocklebur; [7]): 0
Cocklebur plant response rating (cocklebur; [8]): 0
Cocklebur plant response rating (cocklebur; [9]): 0
Cocklebur plant response rating (cocklebur; [10]): 0
Morningglory plant response rating (morningglory; [1]): 4
Morningglory plant response rating (morningglory; [4]): 7
Plant response rating, Morningglory (morningglory; [5]): 0
Plant response rating, Morningglory (morningglory; [6]): 0
Plant response rating, Morningglory (morningglory; [7]): 0
Morningglory plant response rating (morningglory; [8]): 0
Morningglory plant response rating (morningglory; [9]): 7
Morningglory plant response rating (morningglory; [10]): 8
Ducksalad plant response rating (duck salad; [1]): 0
Ducksalad plant response rating (duck salad; [2]): 0
Ducksalad plant response rating (duck salad; [11]): 0
Ducksalad plant response rating (duck salad; [3]): 0
Nutsedge plant response rating (purple nutsedge; [1]): 0
Nutsedge plant response rating (purple nutsedge; [4]): 0
Plant response rating, Nutsedge (purple nutsedge; [5]): 0
Plant response rating, Nutsedge (purple nutsedge; [6]): 0
Plant response rating, Nutsedge (purple nutsedge; [7]): 0
Nutsedge plant response rating (purple nutsedge; [8]): 0
Nutsedge plant response rating (purple nutsedge; [9]): 0
Nutsedge plant response rating (purple nutsedge; [10]): 0
Wheat plant response rating (wheat; [1]): 0
Wheat plant response rating (wheat; [4]): 0
Plant response rating, Wheat (wheat; [5]): 0
Plant response rating, Wheat (wheat; [6]): 0
Plant response rating, Wheat (wheat; [7]): 0
Wheat plant response rating (wheat; [8]): 0
Wheat plant response rating (wheat; [9]): 0
Soybean plant response rating (soybean; [1]): 3
Soybean plant response rating (soybean; [4]): 3
Plant response rating, Soybean (soybean; [5]): 0
Plant response rating, Soybean (soybean; [6]): 0
Plant response rating, Soybean (soybean; [7]): 0
Soybean plant response rating (soybean; [8]): 0
Soybean plant response rating (soybean; [9]): 3
Rape plant response rating (rape; [1]): 0
Rape plant response rating (rape; [4]): 0
Plant response rating, Rape (rape; [5]): 0
Plant response rating, Rape (rape; [6]): 0
Plant response rating, Rape (rape; [7]): 0
Rape plant response rating (rape; [8]): 0
Rape plant response rating (rape; [9]): 0
Rape plant response rating (rape; [10]): 0
Giant foxtail plant response rating (giant foxtail; [1]): 0
Giant foxtail plant response rating (giant foxtail; [4]): 1
Plant response rating, Giant foxtail (giant foxtail; [5]): 3
Plant response rating, Giant foxtail (giant foxtail; [6]): 5
Plant response rating, Giant foxtail (giant foxtail; [7]): 7
Giant foxtail plant response rating (giant foxtail; [8]): 9
Giant foxtail plant response rating (giant foxtail; [9]): 0
Giant foxtail plant response rating (giant foxtail; [10]): 1
Bedstraw plant response rating (bedstraw; [1]): 3
Bedstraw plant response rating (bedstraw; [4]): 4
Plant response rating, Bedstraw (bedstraw; [5]): 0
Plant response rating, Bedstraw (bedstraw; [6]): 0
Plant response rating, Bedstraw (bedstraw; [7]): 2
Bedstraw plant response rating (bedstraw; [8]): 6
Bedstraw plant response rating (bedstraw; [9]): 3
Bedstraw plant response rating (bedstraw; [10]): 5
Blackgrass plant response rating (blackgrass; [1]): 0
Blackgrass plant response rating (blackgrass; [4]): 0
Plant response rating, Blackgrass (blackgrass; [5]): 0
Plant response rating, Blackgrass (blackgrass; [6]): 1
Plant response rating, Blackgrass (blackgrass; [7]): 1
Blackgrass plant response rating (blackgrass; [8]): 5
Blackgrass plant response rating (blackgrass; [9]): 0
Blackgrass plant response rating (blackgrass; [10]): 2
B. signalgrass plant response rating (surinam grass; [1]): 0
B. signalgrass plant response rating (surinam grass; [4]): 0
Plant response rating, B. signalgrass (surinam grass; [5]): 0
Plant response rating, B. signalgrass (surinam grass; [6]): 0
Plant response rating, B. signalgrass (surinam grass; [7]): 0
B. signalgrass plant response rating (surinam grass; [8]): 0
B. signalgrass plant response rating (surinam grass; [9]): 0
B. signalgrass plant response rating (surinam grass; [10]): 0
Barnyardgrass plant response rating (bamyardgrass; [1]): 0
Barnyardgrass plant response rating (bamyardgrass; [2]): 0
Barnyardgrass plant response rating (bamyardgrass; [11]): 0
Barnyardgrass plant response rating (bamyardgrass; [3]): 0
Wild oats plant response rating (wild oat; [1]): 0
Wild oats plant response rating (wild oat; [4]): 0
Plant response rating, Wild oats (wild oat; [6]): 0
Plant response rating, Wild oats (wild oat; [7]): 0
Wild oats plant response rating (wild oat; [8]): 0
Wild oats plant response rating (wild oat; [9]): 0
Redroot pigweed plant response rating (pigweed; [1]): 3
Redroot pigweed plant response rating (pigweed; [4]): 3
Plant response rating, Redroot pigweed (pigweed; [5]): 0
Plant response rating, Redroot pigweed (pigweed; [6]): 2
Plant response rating, Redroot pigweed (pigweed; [7]): 4
Redroot pigweed plant response rating (pigweed; [8]): 9
Redroot pigweed plant response rating (pigweed; [9]): 3
Redroot pigweed plant response rating (pigweed; [10]): 4
Velvetleaf plant response rating (velvetleaf; [1]): 0
Velvetleaf plant response rating (velvetleaf; [4]): 0
Plant response rating, Velvetleaf (velvetleaf; [5]): 0
Plant response rating, Velvetleaf (velvetleaf; [6]): 0
Plant response rating, Velvetleaf (velvetleaf; [7]): 0
Velvetleaf plant response rating (velvetleaf; [8]): 0
Velvetleaf plant response rating (velvetleaf; [9]): 0
